Active and inactive are the calls of the source. The calls are words filed in the database; no cut-off is given here.
Assays:
[1] = target: T1, Tyrosyl-DNA phosphodiesterase 2 (Homo sapiens, UniProt O95551); experiment: Inhibition of human recombinant TDP2 using alpha32P-cordycepin-3'-labeled TY19 as substrate after 15 mins by PAGE method
T1 sequence (O95551 whole entry): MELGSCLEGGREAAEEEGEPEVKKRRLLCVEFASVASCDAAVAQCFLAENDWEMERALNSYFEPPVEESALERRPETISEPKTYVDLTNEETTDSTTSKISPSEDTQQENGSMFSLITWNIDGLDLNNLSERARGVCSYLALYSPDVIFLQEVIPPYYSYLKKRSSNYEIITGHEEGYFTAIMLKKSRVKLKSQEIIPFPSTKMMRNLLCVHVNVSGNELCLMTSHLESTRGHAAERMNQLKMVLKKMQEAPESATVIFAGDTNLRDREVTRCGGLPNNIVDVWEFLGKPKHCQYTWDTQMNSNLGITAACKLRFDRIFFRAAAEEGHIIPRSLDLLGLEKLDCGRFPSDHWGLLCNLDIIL

[2] = target: T2, Tyrosyl-DNA phosphodiesterase 2 (Danio rerio, UniProt Q5XJA0); experiment: Inhibition of zebra fish recombinant TDP2 using alpha32P-cordycepin-3'-labeled TY19 as substrate after 15 mins by PAGE method
T2 sequence (Q5XJA0 whole entry): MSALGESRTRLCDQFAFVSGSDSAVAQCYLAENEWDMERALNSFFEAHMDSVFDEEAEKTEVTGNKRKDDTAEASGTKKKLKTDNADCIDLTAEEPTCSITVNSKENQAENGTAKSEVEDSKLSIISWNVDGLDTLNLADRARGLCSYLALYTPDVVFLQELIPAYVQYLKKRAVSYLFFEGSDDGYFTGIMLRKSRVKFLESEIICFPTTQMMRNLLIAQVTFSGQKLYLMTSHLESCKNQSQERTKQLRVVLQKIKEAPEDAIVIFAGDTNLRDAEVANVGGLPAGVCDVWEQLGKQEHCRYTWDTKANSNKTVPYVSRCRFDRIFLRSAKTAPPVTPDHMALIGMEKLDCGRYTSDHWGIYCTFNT

[3] = target: T3, Tyrosyl-DNA phosphodiesterase 2 (Homo sapiens) (UniProt O95551); experiment: Inhibition of endogenous human TDP2 within whole cell extracts from human TDP2-complemented DT40 chicken cells using TY19 DNA as substrate after 15 mins by spectrophotometric analysis
T3 sequence (whole entry): T1 sequence (O95551 whole entry)

[4] = target: T4, Tyrosyl-DNA phosphodiesterase 2 (Mus musculus, UniProt Q9JJX7); experiment: Inhibition of mouse recombinant TDP2 using alpha32P-cordycepin-3'-labeled TY19 as substrate after 15 mins by PAGE method
T4 sequence (Q9JJX7 whole entry): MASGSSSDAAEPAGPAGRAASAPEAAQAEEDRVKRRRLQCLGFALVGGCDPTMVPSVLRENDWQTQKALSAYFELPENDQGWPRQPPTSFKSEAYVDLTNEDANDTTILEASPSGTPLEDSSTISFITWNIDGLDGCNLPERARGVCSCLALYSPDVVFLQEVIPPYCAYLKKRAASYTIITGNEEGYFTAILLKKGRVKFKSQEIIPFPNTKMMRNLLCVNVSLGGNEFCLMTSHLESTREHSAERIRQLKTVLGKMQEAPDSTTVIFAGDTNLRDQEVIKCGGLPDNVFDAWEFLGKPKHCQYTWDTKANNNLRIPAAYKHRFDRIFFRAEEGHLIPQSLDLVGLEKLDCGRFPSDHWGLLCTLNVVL

[5] = target: T5, Tyrosyl-DNA phosphodiesterase 1 (Homo sapiens, UniProt Q9NUW8); experiment: Inhibition of human recombinant TDP1 using 5'-[32P]-labeled N14Y as substrate after 15 mins by PAGE method
T5 sequence (Q9NUW8 whole entry): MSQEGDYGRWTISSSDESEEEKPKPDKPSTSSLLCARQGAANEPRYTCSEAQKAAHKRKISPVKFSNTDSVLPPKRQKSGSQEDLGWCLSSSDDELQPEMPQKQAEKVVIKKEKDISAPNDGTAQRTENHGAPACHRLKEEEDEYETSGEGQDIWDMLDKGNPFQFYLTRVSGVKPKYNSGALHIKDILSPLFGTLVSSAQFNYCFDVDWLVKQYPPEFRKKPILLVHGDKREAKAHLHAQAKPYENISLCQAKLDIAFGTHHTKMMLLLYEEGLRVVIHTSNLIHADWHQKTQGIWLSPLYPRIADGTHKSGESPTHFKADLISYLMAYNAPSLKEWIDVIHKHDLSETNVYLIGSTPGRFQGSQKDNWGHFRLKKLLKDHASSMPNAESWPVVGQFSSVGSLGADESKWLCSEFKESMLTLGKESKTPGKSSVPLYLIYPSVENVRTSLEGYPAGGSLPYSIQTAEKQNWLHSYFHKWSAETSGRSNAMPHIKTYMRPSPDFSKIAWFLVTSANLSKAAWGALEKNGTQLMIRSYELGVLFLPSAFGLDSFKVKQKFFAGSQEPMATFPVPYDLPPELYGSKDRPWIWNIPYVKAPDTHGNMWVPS

[6] = target: T5, Tyrosyl-DNA phosphodiesterase 1; experiment: Effect on human TDP1 up to 200 uM
[7] = target: T1, Tyrosyl-DNA phosphodiesterase 2; experiment: Inhibition of human TDP2

For `O=C(NC(CSSCC(NC(=O)c1ccccc1)C(=O)O)C(=O)O)c1ccccc1` (stereo not given), the IC50 [1] was 4.1 µM, the IC50 [2] was 15 µM and the inhibition [3] was “Active”.
`N#CCCN(CCC#N)c1ccc(/C=C2\C(=O)N(c3ccc(S(=O)(=O)O)cc3)N=C2C(=O)O)cc1` was tested, and the IC50 [4] was 15 µM, the IC50 [1] was 3.5 µM and the IC50 [2] was 5.2 µM. The inhibition [3] was “Active” and the IC50 [5] was over 111 µM.
With `COc1ccc(CC2C(=O)N(c3ccc([N+](=O)[O-])cc3)N=C2C(=O)O)cc1Oc1ccc(F)cc1` (stereo not given) the Activity [6] was “inactive” and the IC50 [7] was 12 µM.
With `O=C(Cc1ccccc1)NC(CSSCC(NC(=O)Cc1ccccc1)C(=O)O)C(=O)O` (stereo not given) the IC50 [4] was over 111 µM, the IC50 [1] was 9 µM and the IC50 [2] was 20 µM. The inhibition [3] was “Active” and the IC50 [5] was over 111 µM.

— ChEMBL document CHEMBL3813620, “Discovery of selective inhibitors of tyrosyl-DNA phosphodiesterase 2 by targeting the enzyme DNA-binding cleft” (Bioorg Med Chem Lett, 2016)
